Where a name gives a salt, the structure may show the parent alone.

The target of the experiment is T1, human DPP IV (Homo sapiens, UniProt P27487).
T1 construct: Human serum containing DPP-IV enzyme was used in an experiment after being diluted with assay buffer; from tissue; host or cells: human serum (diluted 10-fold)
T1 sequence (P27487 39-766 limits assumed): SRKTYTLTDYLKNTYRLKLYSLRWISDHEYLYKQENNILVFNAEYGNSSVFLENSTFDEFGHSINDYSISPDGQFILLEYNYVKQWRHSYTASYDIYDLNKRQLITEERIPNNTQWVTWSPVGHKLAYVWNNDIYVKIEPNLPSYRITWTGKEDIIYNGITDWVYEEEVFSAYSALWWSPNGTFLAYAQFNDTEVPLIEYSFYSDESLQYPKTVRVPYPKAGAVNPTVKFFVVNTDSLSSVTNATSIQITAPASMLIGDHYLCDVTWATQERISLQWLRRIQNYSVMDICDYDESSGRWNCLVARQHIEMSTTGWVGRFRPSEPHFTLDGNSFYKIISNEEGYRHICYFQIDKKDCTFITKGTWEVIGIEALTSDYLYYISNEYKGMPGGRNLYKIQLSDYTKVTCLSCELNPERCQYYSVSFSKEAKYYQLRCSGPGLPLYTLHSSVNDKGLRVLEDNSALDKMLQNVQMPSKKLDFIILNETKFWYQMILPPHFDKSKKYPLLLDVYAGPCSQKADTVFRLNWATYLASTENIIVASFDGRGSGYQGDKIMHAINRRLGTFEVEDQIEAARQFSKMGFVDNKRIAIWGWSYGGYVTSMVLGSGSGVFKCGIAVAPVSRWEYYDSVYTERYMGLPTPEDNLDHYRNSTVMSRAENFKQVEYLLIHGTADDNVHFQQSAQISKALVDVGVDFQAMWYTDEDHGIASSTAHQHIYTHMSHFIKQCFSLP
Briefly: In vitro DPP-IV inhibitory effect measurement test (human serum, fluorogenic substrate Gly-Pro-MCA). To be noted: human serum diluted 10-fold as enzyme source; substrate Glycyl-L-Proline 4-Methyl-Coumaryl-7-Amide 100 μM; room temperature; read-out: Inhibitory activity against human DPP IV IC50. In kind it is biochemical. Here is the method: In Vitro DPP-IV Inhibitory Effect Measurement Test
Human serum containing DPP-IV enzyme was used in an experiment after being diluted with assay buffer (25 mM Tris-HCl, 140 mM NaCl, 10 mM KCl, pH 7.9) (finally, diluted 10-fold). Each of solutions of each test compound having various concentrations was added to the diluted serum and the resulting mixture was incubated at room temperature. Then, a substrate (Glycyl-L-Proline 4-Methyl-Coumaryl-7-Amide, Peptide Laboratories Co., Ltd.) was added thereto to a final concentration of 100 μM and the reaction was carried out at room temperature. Acetic acid was added to the reaction mixture to a final concentration of 12.5% to terminate the reaction, and the intensity of fluorescence at an excitation wavelength of 360 nm and a measuring wavelength of 460 nm was measured by the use of a fluorescent plate reader. A compound concentration for 50% inhibition was calculated as an IC50 value from enzyme inhibitory activity values obtained by adding each test compound to a plurality of concentrations.
One may read the IC50 as the concentration that inhibits the measured activity by half. Regarding `COc1ccccc1C(=O)Cn1ccn2nc(N3CCC[C@@H](N)C3)c(Cc3ccccc3Cl)c2c1=O` [Example 9], the IC50 was found to be 71 nM.
As to `N[C@@H]1CCCN(c2nn3cc[nH]c(=O)c3c2Cc2ccccc2Cl)C1` [Example 3, 2-[(3R)-3-Aminopiperidin-1-yl]-3-(2-chlorobenzyl)pyrazolo[1,5-a]pyrazin-4(5H)-one hydrochloride], the IC50 stood at 30 nM.
The value for `N[C@@H]1CCCN(c2nn3cnn(CC(=O)c4ccccc4)c(=O)c3c2Cc2ccccc2Cl)C1` [Example 34, 2-[(3R)-3-Aminopiperidin-1-yl]-3-(2-chlorobenzyl)-5-(2-oxo-2-phenylethyl)pyrazolo[1,5-d][1,2,4]triazin-4(5H)-one hydrochloride] was 2.8 nM; that for `Cn1ncn2nc(N3CCC[C@@H](N)C3)c(Cc3ccccc3Cl)c2c1=O` [Example 33, 2-[(3R)-3-Aminopiperidin-1-yl]-3-(2-chlorobenzyl)-5-methylpyrazolo[1,5-d][1,2,4]triazin-4(5H)-one hydrochloride] was 12 nM.
The value for `N[C@@H]1CCCN(c2nn3cc(C(=O)O)[nH]c(=O)c3c2Cc2ccccc2Cl)C1` [Example 17] was 1.6 nM.
The value for `N#Cc1ccccc1Cn1ccn2nc(N3CCC[C@@H](N)C3)c(Cc3ccccc3Cl)c2c1=O` [Example 12] was 24 nM; that for `Cc1cn2nc(N3CCC[C@@H](N)C3)c(Cc3ccccc3Cl)c2c(=O)n1C` [Example 4, 2-[(3R)-3-Aminopiperidin-1-yl]-3-(2-chlorobenzyl)-5,6-dimethylpyrazolo[1,5-a]pyrazin-4(5H)-one hydrochloride] was 37 nM; that for `COC(=O)c1[nH]c(=O)c2c(Cc3ccccc3Cl)c(N3CCC[C@@H](N)C3)nn2c1C` [Example 1, Methyl 2-[(3R)-3-aminopiperidin-1-yl]-3-(2-chlorobenzyl)-7-methyl-4-oxo-4,5-dihydropyrazolo[1,5-a]pyrazine-6-carboxylate hydrochloride] was 20 nM.
Take `N[C@@H]1CCCN(c2nn3cnn(Cc4nccc5ccccc45)c(=O)c3c2Cc2ccccc2Cl)C1` [Example 35, 2-[(3R)-3-Aminopiperidin-1-yl]-3-(2-chlorobenzyl)-5-(isoquinolin-1-ylmethyl)pyrazolo[1,5-d][1,2,4]triazin-4(5H)-one hydrochloride]: the IC50 turned out to be 2.3 nM.
For `N[C@@H]1CCCN(c2nn3cc(C(=O)O)[nH]c(=O)c3c2Cc2cc(F)ccc2Cl)C1` [Example 7, 2-[(3R)-3-Aminopiperidin-1-yl]-3-(2-chloro-5-fluorobenzyl)-4-oxo-4,5-dihydropyrazolo[1,5-a]pyrazine-6-carboxylic acid methanesulfonate], the IC50 worked out at 0.7 nM.
The value for `CCOC(=O)c1cn2nc(N3CCC[C@@H](N)C3)c(Cc3cc(F)ccc3Cl)c2c(=O)[nH]1` [Example 32, Ethyl 2-[(3R)-3-aminopiperidin-1-yl]-3-(2-chloro-5-fluorobenzyl)-4-oxo-4,5-dihydropyrazolo[1,5-a]pyrazine-6-carboxylate methanesulfonate] was 0.9 nM; that for `Cc1c(C)n2nc(N3CCC[C@@H](N)C3)c(Cc3ccccc3Cl)c2c(=O)n1CC(=O)c1ccccc1` [Example 18] was 45 nM.
For `Cn1c(C#N)cn2nc(N3CCC[C@@H](N)C3)c(Cc3ccccc3Cl)c2c1=O` [Example 20], the IC50 was 5 nM.
On to `CCOC(=O)c1cn2nc(N3CCC[C@@H](N)C3)c(Cc3ccccc3Cl)c2c(=O)[nH]1` [Example 41, Ethyl 2-[(3R)-3-aminopiperidin-1-yl]-3-(2-chlorobenzyl)-4-oxo-4,5-dihydropyrazolo[1,5-a]pyrazine-6-carboxylate hydrochloride], for which the IC50 was 2.1 nM.
The value for `N[C@@H]1CCCN(c2nn3ccn(Cc4nccc5ccccc45)c(=O)c3c2Cc2ccccc2Cl)C1` [Example 10] was 2.8 nM; that for `N[C@@H]1CCCN(c2nn3ccn(CCc4ccccc4)c(=O)c3c2Cc2ccccc2Cl)C1` [Example 14] was 61 nM; that for `COc1cccc(C(=O)Cn2ccn3nc(N4CCC[C@@H](N)C4)c(Cc4ccccc4Cl)c3c2=O)c1` [Example 13] was 6.1 nM.
For `CCc1cn2nc(N3CCC[C@@H](N)C3)c(Cc3ccccc3Cl)c2c(=O)n1CC(=O)c1ccccc1` [Example 26], the IC50 was found to be 28 nM.
For the compound `COC(=O)c1cn2nc(N3CCC[C@@H](N)C3)c(Cc3ccccc3Cl)c2c(=O)[nH]1` [Example 16], the IC50 came to 2.5 nM.
The value for `CC(C)Oc1cccc(C(=O)Cn2ccn3nc(N4CCC[C@@H](N)C4)c(Cc4ccccc4Cl)c3c2=O)c1` [Example 11] was 25 nM; that for `Cn1c(C(N)=O)cn2nc(N3CCC[C@@H](N)C3)c(Cc3ccccc3Cl)c2c1=O` [Example 21] was 13 nM.
Take `N[C@@H]1CCCN(c2nn3cn[nH]c(=O)c3c2Cc2ccccc2Cl)C1` [Example 19]: the IC50 came to 15 nM.
The value for `N[C@@H]1CCCN(c2nn3ccn(CC(=O)c4ccccc4)c(=O)c3c2Cc2ccccc2Cl)C1` [Example 8, 2-[(3R)-3-Aminopiperidin-1-yl]-3-(2-chlorobenzyl)-5-(2-oxo-2-phenylethyl)pyrazolo[1,5-a]pyrazin-4(5H)-one hydrochloride] was 7 nM; that for `COC(=O)Cc1c(C(=O)OC)[nH]c(=O)c2c(Cc3ccccc3Cl)c(N3CCC[C@@H](N)C3)nn12` [Example 38, Methyl 2-[(3R)-3-aminopiperidin-1-yl]-3-(2-chlorobenzyl)-7-(2-methoxy-2-oxoethyl)-4-oxo-4,5-dihydropyrazolo[1,5-a]pyrazine-6-carboxylate hydrochloride] was 9.6 nM.
The value for `N[C@@H]1CCCN(c2nn3cc(-c4ccccc4)[nH]c(=O)c3c2Cc2ccccc2Cl)C1` [Example 5, 2-[(3R)-3-Aminopiperidin-1-yl]-3-(2-chlorobenzyl)-6-phenylpyrazolo[1,5-a]pyrazin-4(5H)-one hydrochloride] was 82 nM.

The values are drawn from patent publication US20070082908A1, “Bicycle pyrazole derivative” (DAINIPPON SUMITOMO PHARMA CO., LTD., priority 2003, published 2007).
